One may read the AUC as the area under the concentration-time curve, a measure of exposure. Usually Cmax stands for the peak of the concentration-time curve. The term Kd denotes a measure of binding affinity in units of concentration. Read a low Kd as tighter binding.

Data set [1] deals with pSTAT5/GM-CSF. Description: pSTAT5/GM-CSF cellular assay (JAK2 selectivity). It is filed as cell-based.
The test system of data set [2] is JAK2, TYK2/p-STAT4 (Tyr693) activated by IL-12 in NK-92 cell line. Description: IL-12-JAK2, TYK2/p-STAT4 (Tyr693) inhibition IC50 cellular assay. Conditions: for Selectivity fold (TYK2/JAK2): Cellular assay, pSTAT5/GM-CSF IC50 vs pSTAT4/IL-12 IC50; for IC50: NK92, Cellular assay, read-out: pSTAT4/IL-12 IC50. The format is cell-based. The gist of the method:
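p-STAT4 (Tyr693) in lysates was measured by AlphaLISA SureFire Ultra after a 30 min IL-12 challenge (40 ng/ml final) at 37° C. Overnight-starved, IL-2-free NK-92 cells had been pretreated 1 h with compound at 10000 to 0.61 nM (4-fold, 8 points). IC50 values came from four-parameter logistic fitting.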

The target in data set [3] is T1, TYK2-JH2 (aa 575-869, in-house) protein (Homo sapiens, UniProt P29597).
T1 construct: TYK2-JH2 (aa 575-869, in-house) protein; made in house
T1 sequence (P29597 575-869): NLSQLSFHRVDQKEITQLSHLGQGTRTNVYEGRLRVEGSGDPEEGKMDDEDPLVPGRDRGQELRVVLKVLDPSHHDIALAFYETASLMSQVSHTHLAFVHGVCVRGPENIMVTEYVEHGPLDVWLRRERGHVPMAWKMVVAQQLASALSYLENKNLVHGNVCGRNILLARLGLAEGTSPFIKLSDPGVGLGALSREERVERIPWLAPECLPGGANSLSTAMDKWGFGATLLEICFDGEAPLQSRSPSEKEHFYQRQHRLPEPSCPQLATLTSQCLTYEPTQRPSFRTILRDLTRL
Kind of data set: TYK2-JH2 biochemical assay (HTRF probe displacement). It is filed as binding. Conditions: Biochemical assay; for IC50: read-out: TYK2-JH2 IC50. A digest of the protocol: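 HTRF probe-displacement format: compound dilutions (10 points, 5-fold, from 500 uM in DMSO at 500×) were combined with 0.2 nM TYK2-JH2 protein for 0.5 h at room temperature in HEPES pH 7.5 buffer with MgCl2, BSA, DTT and Brij-35. Percent inhibition came from the 615/665 nm fluorescence ratio, fitted to a four-parameter logistic for IC50.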

The nature of data set [4]: Mouse PK study, oral administration. The format is in vivo, male CD-1 mouse. On the procedure:
Biological Assay: Mouse PK Study
The pharmacokinetics of compounds were evaluated in male CD-1 mouse via Oral Administration (dose of 10 mg/kg). For oral administration study, test compounds were added in 0.5% MC in water and administrated to mice at 10 mg/kg by gavage. Blood was collected into EDTA-K2 anticoagulant tube at 15, and 30 min and 1, 2, 4, 8 and 24 h after administration. Approximately 30 μL blood was collected at each time point. And then the blood was centrifuged at 2000 g for 5 min at 4° C. using a centrifuge to obtain the plasma. The plasma sample was transferred into a tube and stored in a freezer at approximately −70° C. until the determination of concentration by LC-MS/MS. Pharmacokinetic parameters were estimated by using WinNonlin software (version 8.1, Pharsight Corporation, CA, USA) with non-compartmental method. The following pharmacokinetic parameters were calculated, whenever possible from the plasma concentration-time data: Tmax, Cmax, AUClast, AUCinf, T1/2 for PO administration. All animals were fasted before experiment.

The target in data set [5] is T2, JAK1-JH2 protein (aa 561-860, in-house) (Homo sapiens, UniProt P23458).
T2 construct: JAK1-JH2 protein (aa 561-860, in-house); made in house
T2 sequence (P23458 561-860): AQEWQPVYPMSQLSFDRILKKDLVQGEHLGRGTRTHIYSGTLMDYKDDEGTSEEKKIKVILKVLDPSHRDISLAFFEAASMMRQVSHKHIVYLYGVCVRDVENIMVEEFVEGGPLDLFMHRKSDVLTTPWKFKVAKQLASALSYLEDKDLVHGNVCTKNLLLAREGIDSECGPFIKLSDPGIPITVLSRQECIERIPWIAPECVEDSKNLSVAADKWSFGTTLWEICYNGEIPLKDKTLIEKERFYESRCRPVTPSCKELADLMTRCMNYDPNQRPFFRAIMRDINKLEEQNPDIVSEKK
Description: JAK1-JH2 biochemical assay (HTRF probe displacement). The format is binding. On the procedure:
Assay B: JAK1-JH2 Biochemical Assay
Compounds disclosed herein were tested for blocking of JAK1-JH2 protein (aa 561-860, in-house) with its probe in an assay based on Homogeneous Time Resolved Fluorescence. Compound dilution is done according to the following protocol: (1) Prepare 500× compounds solution in DMSO from 500 uM by 5-fold dilution, total 10 doses were included; (2) Prepare 10× compounds solution in an assay buffer containing 20 mM HEPES, pH 7.5, 10 mM MgCl2, 0.005% BSA, 2 mM DTT, 0.015% Brij-35 by transferring 1 μl serial 500× stock solution into 49 μl assay buffer. 4 μL of 1.17 nM recombinant JAK1-JH2 protein was pre-incubated with 1 μl of 10× serial dilution of compounds at room temperature for 0.5 hour. […] The HTRF signals (ex337 nm, em620 nm/665 nm) were read on BMG PHERAstar FS instrument. The inhibition percentage of JAK1 interaction with its probe in presence of increasing concentrations of compounds was calculated based on the ratio of fluorescence at 615 nm to that at 665 nm. The IC50 for each compound was derived from fitting the data to the four-parameter logistic equation by Dotmatics.

The target in data set [6] is T2, JAK1-JH2 protein (aa 561-860, in-house). The data set is described as above. The format is binding. Conditions: in-house probe of the JAK1-JH2 assay.
Where [7] appears, read: Po dosing (10 mg/kg), male CD-1 mouse.
The mark [8] stands for this setting: male, CD-1, plasma, Po 10 mg/kg mouse.
Setting [9] is: plasma, Po dosing (10 mg/kg), male CD-1 mouse, read-out: Cmax.

The structures appear in SMILES notation. Where two headings read alike, the source gives them in different places.

In data set [1], `COc1cc(Nc2cc(NC(C)=O)ncc2-c2ccc(F)cn2)nc(S(C)(=O)=O)c1` [Example F22, N-(5-fluoro-4′-((4-methoxy-6-(methylsulfonyl)pyridin-2-yl)amino)-[2,3′-bipyridin]-6′-yl)acetamide] came in with an IC50 greater than 10000 nM. Also, in data set [2], the “Selectivity fold (TYK2/JAK2)” value was greater than 5494 fold and the IC50 is 1.82 nM. Moreover, in data set [3], the IC50 turned out to be 0.026 nM. In data set [4] (setting [7]), this molecule registered an AUClast of 2098 ng·h/mL and a T1/2 of 1.48 h. The molecule also displayed an exposure (AUC) in data set [4] (setting [8]) of 2100 ng·h/mL. Also, the Cmax in data set [4] (setting [9]) was 911 ng/mL.

Take `CC(=O)Nc1cc(Nc2cccc(S(C)(=O)=O)c2)c(-c2ccc(C(C)(C)O)cn2)cn1` [Example H1, N-(5-(2-hydroxypropan-2-yl)-4′-((3-(methylsulfonyl)phenyl)amino)-[2,3′-bipyridin]-6′-yl)acetamide]: the IC50 in data set [1] was greater than 10000 nM; in data set [5] it was 1.4 nM; in data set [2] it was 2.6 nM; in data set [3] it was 0.016 nM. Moreover, the “Selectivity fold (TYK2/JAK2)” value in data set [2] was greater than 3846 fold. In data set [3] (JAK1-JH2 IC50 vs TYK2-JH2 IC50), the “Selectivity fold (TYK2/JAK1)” value is 87.5 fold.

Regarding `COc1cc(Nc2cc(NC(C)=O)ncc2-c2ccc(C(C)(C)O)cn2)nc(S(C)(=O)=O)c1` [Example H11, N-(5-(2-hydroxypropan-2-yl)-4′-((4-methoxy-6-(methylsulfonyl)pyridin-2-yl)amino)-[2,3′-bipyridin]-6′-yl)acetamide], in data set [1], the IC50 was greater than 10000 nM. Further, in data set [2], the “Selectivity fold (TYK2/JAK2)” value was greater than 10000 fold and the IC50 is 1 nM. Moreover, the IC50 in data set [3] was determined as 0.027 nM. In addition, in data set [4] (setting [7]), the AUClast came out at 19.3 ng·h/mL, the Cmax amounted to 8.73 ng/mL and the T1/2 came out at 2.07 h. In data set [4] (setting [8]), this molecule gave an AUC of 19.4 ng·h/mL. The Cmax in data set [4] (male, CD-1, plasma, Po 10 mg/kg mouse, read-out: Cmax) was 7 ng/mL.

For `COc1cc(Nc2cc(NC(C)=O)ncc2-c2ccc3c(n2)OCC(C)(C)O3)nc(S(C)(=O)=O)c1` [Example Q25, N-(5-(2,2-dimethyl-2,3-dihydro-[1,4]dioxino[2,3-b]pyridin-6-yl)-4-((4-methoxy-6-(methylsulfonyl)pyridin-2-yl)amino)pyridin-2-yl)acetamide], the IC50 in data set [1] was 1820 nM; in data set [2], 0.53 nM; in data set [3], 0.026 nM. The “Selectivity fold (TYK2/JAK2)” value in data set [1] (pSTAT5/GM-CSF IC50 over pSTAT4/IL-12 IC50) worked out at 3437 fold. Further, the “AUC and Cmax fold higher than those of Example F22 and H11” value in data set [4] (Po 10 mg/kg mouse) is “at least 3 fold”. Also, the AUClast in data set [4] (setting [7]) turned out to be 16245 ng·h/mL. The same molecule gave a T1/2 in data set [4] (setting [7]) of 3.01 h. In data set [4] (setting [8]), this molecule showed an AUC of 16200 ng·h/mL. Moreover, the Cmax in data set [4] (setting [9]) was found to be 2820 ng/mL.

In the case of `CN(C(=O)CN1CCN(CCNC(=O)CCOCCOCCOCCOCCOCCOCCNC(=O)CCCC[C@@H]2SC[C@@H]3NC(=O)N[C@@H]32)CC1)c1ccc(N/C(=C2\C(=O)Nc3ccccc32)c2ccccc2)cc1` [Probe 2, N-(2-(4-(2-(methyl(4-((((Z)-2-oxoindolin-3-ylidene)(phenyl)methyl)amino)phenyl)amino)-2-oxoethyl)piperazin-1-yl)ethyl)-1-(5-((3aS,4S,6aR)-2-oxohexahydro-1H-thieno[3,4-d]imidazol-4-yl)pentanamido)-3,6,9,12,15,18-hexaoxahenicosan-21-amide], the Kd in data set [6] is 2.9 nM.
